Source: patent US20260285850A1, “SUBSTITUTED OXAZOLIDINONES AND IMIDAZOLINONES AS HERBICIDES” (FMC CORPORATION, priority 2023, published 2026)

What was measured:
Format in all cases: in vivo
[1] = test system: barnyardgrass (Echinochloa crus-galli); assay: Test A preemergence soil spray, visual injury rating 0-100; settings: 10 days
How it was run: (§1)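 Grow plants in loam soil blended with sand. Apply formulated compound (non-phytotoxic solvent, surfactant) as a directed soil spray before emergence, or to plants at the one- to two-leaf stage after emergence. Hold in greenhouse 10 days, then rate injury visually versus untreated controls on a 0-100 scale.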

[2] = test system: blackgrass (Alopecurus myosuroides); assay: as above; settings: 10 days
How it was run: as §1

[3] = test system: corn (Zea mays); assay: as above; settings: 10 days
How it was run: as §1

[4] = test system: green foxtail (Setaria viridis); assay: as above; settings: 10 days
How it was run: as §1

[5] = test system: kochia (Bassia scoparia); assay: as above; settings: 10 days
How it was run: as §1

[6] = test system: oat, wild (wild oat, Avena fatua); assay: as above; settings: 10 days
How it was run: as §1

[7] = test system: palmer (palmer amaranth, palmer pigweed, Amaranthus palmeri); assay: as above; settings: 10 days
How it was run: as §1

[8] = test system: ragweed (common ragweed, Ambrosia artemisiifolia); assay: as above; settings: 10 days
How it was run: as §1

[9] = test system: ryegrass, Italian (italian ryegrass, Lolium multiflorum); assay: as above; settings: 10 days
How it was run: as §1

[10] = test system: soybean (Glycine max); assay: as above; settings: 10 days
How it was run: as §1

[11] = test system: wheat (Triticum aestivum); assay: as above; settings: 10 days
How it was run: as §1

[12] = test system: barnyardgrass (Echinochloa crus-galli); assay: Test A postemergence application, visual injury rating 0-100
How it was run: as §1

[13] = test system: blackgrass (Alopecurus myosuroides); assay: as above
How it was run: as §1

[14] = test system: corn (Zea mays); assay: as above
How it was run: as §1

[15] = test system: green foxtail (Setaria viridis); assay: as above
How it was run: as §1

[16] = test system: horseweed (Erigeron canadensis); assay: as above
How it was run: as §1

[17] = test system: kochia (Bassia scoparia); assay: as above
How it was run: as §1

[18] = test system: oat, wild (wild oat, Avena fatua); assay: as above
How it was run: as §1

[19] = test system: palmer (palmer amaranth, palmer pigweed, Amaranthus palmeri); assay: as above
How it was run: as §1

[20] = test system: ragweed (common ragweed, Ambrosia artemisiifolia); assay: as above
How it was run: as §1

[21] = test system: ryegrass, Italian (italian ryegrass, Lolium multiflorum); assay: as above
How it was run: as §1

[22] = test system: soybean (Glycine max); assay: as above
How it was run: as §1

[23] = test system: wheat (Triticum aestivum); assay: as above
How it was run: as §1

[24] = test system: barnyardgrass (Echinochloa crusgalli); assay: Test B flooded paddy test, visual plant response rating 0-100; settings: 250 g ai/ha, Flood, applied to paddy water, evaluated after 13 days
How it was run: (§2)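 2-leaf plants; flood 3 cm over soil; compound dosed into paddy water; depth kept constant; greenhouse 13 d; visual scoring vs controls. Dash = no result.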

[25] = test system: ducksalad (Heteranthera limosa); assay: as above; settings: 250 g ai/ha, Flood, applied to paddy water, evaluated after 13 days
How it was run: as §2

[26] = test system: rice (Oryza sativa); assay: as above; settings: 250 g ai/ha, Flood, applied to paddy water, evaluated after 13 days
How it was run: as §2

[27] = test system: sedge, umbrella (small-flower umbrella sedge, Cyperus difformis); assay: as above; settings: 250 g ai/ha, Flood, applied to paddy water, evaluated after 13 days
How it was run: as §2

[28] = 62 g ai/ha, 0 = no effect, 100 = complete control
[29] = 62 g ai/ha, postemergence, 10 days, 0 = no effect, 100 = complete control
[30] = Postemergence, 16 g ai/ha, greenhouse 10 days, 0 no effect, 100 complete control

SMILES: CC1(C(=O)NC2C=CC(C(=O)NO)C2)CN(c2cc(F)cc(F)c2)C(=O)O1 (centres unmarked) [Compound 137]
- Barnyardgrass plant response rating ([1]; 16 g ai/ha, 0 to 100 scale): 0
- Barnyardgrass plant response rating (0-100) [1, 28]: 60
- Blackgrass plant response rating ([2]; 16 g ai/ha, 0 to 100 scale): 0
- Blackgrass plant response rating (0-100) [2, 28]: 50
- Corn plant response rating ([3]; 16 g ai/ha, 0 to 100 scale): 0
- Corn plant response rating (0-100) [3, 28]: 10
- Foxtail, Green plant response rating ([4]; 16 g ai/ha, 0 to 100 scale): 0
- Foxtail, Green plant response rating (0-100) [4, 28]: 30
- Kochia plant response rating ([5]; 16 g ai/ha, 0 to 100 scale): 0
- Kochia plant response rating (0-100) [5, 28]: 90
- Oat, Wild plant response rating ([6]; 16 g ai/ha, 0 to 100 scale): 0
- Oat, Wild plant response rating (0-100) [6, 28]: 30
- Pigweed, Palmer plant response rating ([7]; 16 g ai/ha, 0 to 100 scale): 20
- Pigweed, Palmer plant response rating (0-100) [7, 28]: 70
- Ragweed plant response rating ([8]; 16 g ai/ha, 0 to 100 scale): 0
- Ragweed plant response rating (0-100) [8, 28]: 0
- Ryegrass, Italian plant response rating ([9]; 16 g ai/ha, 0 to 100 scale): 30
- Ryegrass, Italian plant response rating (0-100) [9, 28]: 60
- Soybean plant response rating ([10]; 16 g ai/ha, 0 to 100 scale): 0
- Soybean plant response rating (0-100) [10, 28]: 50
- Wheat plant response rating ([11]; 16 g ai/ha, 0 to 100 scale): 20
- Wheat plant response rating (0-100) [11, 28]: 90
- Barnyardgrass plant response rating (0-100) [12, 29]: 70
- Barnyardgrass plant response rating (0 to 100 scale) [12, 30]: 0
- Blackgrass plant response rating (0-100) [13, 29]: 60
- Blackgrass plant response rating (0 to 100 scale) [13, 30]: 0
- Corn plant response rating (0-100) [14, 29]: 50
- Corn plant response rating (0 to 100 scale) [14, 30]: 10
- Foxtail, Green plant response rating (0-100) [15, 29]: 10
- Foxtail, Green plant response rating (0 to 100 scale) [15, 30]: 0
- Horseweed plant response rating (0-100) [16, 29]: 50
- Horseweed plant response rating (0 to 100 scale) [16, 30]: 0
- Kochia plant response rating (0-100) [17, 29]: 50
- Kochia plant response rating (0 to 100 scale) [17, 30]: 0
- Oat, Wild plant response rating (0-100) [18, 29]: 30
- Oat, Wild plant response rating (0 to 100 scale) [18, 30]: 0
- Pigweed, Palmer plant response rating (0-100) [19, 29]: 30
- Pigweed, Palmer plant response rating (0 to 100 scale) [19, 30]: 0
- Ragweed plant response rating (0-100) [20, 29]: 0
- Ragweed plant response rating (0 to 100 scale) [20, 30]: 0
- Ryegrass, Italian plant response rating (0-100) [21, 29]: 30
- Ryegrass, Italian plant response rating (0 to 100 scale) [21, 30]: 0
- Soybean plant response rating (0-100) [22, 29]: 60
- Soybean plant response rating (0 to 100 scale) [22, 30]: 0
- Wheat plant response rating (0-100) [23, 29]: 70
- Wheat plant response rating (0 to 100 scale) [23, 30]: 0
- Plant response rating, Barnyardgrass (0 to 100 scale, 0 is no effect and 100 is complete control) [24]: 0
- Plant response rating, Ducksalad (0 to 100 scale, 0 is no effect and 100 is complete control) [25]: 0
- Plant response rating, Rice (0 to 100 scale, 0 is no effect and 100 is complete control) [26]: 0
- Plant response rating, Sedge, Umbrella (0 to 100 scale, 0 is no effect and 100 is complete control) [27]: 0
